Data as given in patent US20060252807A1, “Novel ortho-terphenyl inhibitors of p38 kinase and methods of treating inflammatory disorders” (Kalypsys, Inc., priority 2005, published 2006).

What follows are compounds tested against T1, active p38 alpha enzyme (Upstate Biotechnology) (Homo sapiens, UniProt Q16539) (assay: p38α biochemical assay (ATP turnover, luminescent detection, Cambrex PKlight)). Conditions: p38α biochemical assay, Table 1 Biological Activity.
T1 construct: purchased Upstate Biotechnology
Method in brief: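 Active p38α phosphorylates MapkapK2 whole protein with 1.4 uM final ATP, 2 h at 30C, in Tris/MOPS buffer with MgCl2, CaCl2, EGTA, EDTA, glycerol, β-mercaptoethanol and 1 mg/ml BSA. Compounds pin-delivered from DMSO; total ATP turnover read by luminescence after PKlight addition.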

T1 sequence (Q16539 whole entry): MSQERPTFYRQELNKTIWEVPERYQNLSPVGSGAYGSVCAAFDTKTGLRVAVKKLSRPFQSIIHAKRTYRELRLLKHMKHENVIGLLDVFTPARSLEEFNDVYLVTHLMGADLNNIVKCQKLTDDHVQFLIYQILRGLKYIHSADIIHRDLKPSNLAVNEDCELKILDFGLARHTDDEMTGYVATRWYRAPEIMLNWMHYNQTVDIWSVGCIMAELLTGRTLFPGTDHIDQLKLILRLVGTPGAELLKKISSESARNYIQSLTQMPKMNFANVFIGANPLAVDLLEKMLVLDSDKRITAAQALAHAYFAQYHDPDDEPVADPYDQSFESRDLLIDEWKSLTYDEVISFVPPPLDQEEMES

`CCCCCc1ccc(C(=O)NCc2nc(-c3ccc(F)cc3)c(-c3nc(C(=O)NC(C)C)cs3)o2)cc1` [Example 257] and `CC(C)NC(=O)c1csc(-c2oc(CNC(=O)c3cccnc3Cl)nc2-c2ccc(F)cc2)n1` [Example 153] cannot be ordered by IC50: > 1 µM for the first, ≤ 1 µM for the second.

`Cc1ccccc1OCC(=O)N1CCN(Cc2nc(-c3ccc(F)cc3)c(-c3nc(C(=O)NC(C)C)cs3)o2)CC1` [Example 417] and `Cc1cccc(CCC(=O)N2CCN(Cc3nc(-c4ccc(F)cc4)c(-c4nc(C(=O)NC(C)C)cs4)o3)CC2)c1` [Example 410] cannot be ordered by IC50: > 1 µM for the first, ≤ 1 µM for the second.

`COc1cccc(C(=O)NCc2onc(-c3ccc(F)cc3)c2-c2nc(C(=O)NC(C)C)cs2)c1OC` [Example 703] and `CC(C)NC(=O)c1csc(-c2c(-c3ccc(F)cc3)noc2CNC(=O)c2cccc(F)c2F)n1` [Example 633] cannot be ordered by IC50: > 1 µM for the first, > 1 µM for the second.

`CC(C)NC(=O)c1csc(-c2oc(CNC(=O)c3cc(Cl)ccn3)nc2-c2ccc(F)cc2)n1` [Example 155] and `CC(C)NC(=O)c1csc(-c2oc(CNC(=O)c3cn(C)cn3)nc2-c2ccc(F)cc2)n1` [Example 117] cannot be ordered by IC50: > 1 µM for the first, > 1 µM for the second.

`Cc1[nH]nc(-c2ccc(F)cc2)c1-c1nc(C(=O)NCc2ccccn2)cs1` [Example 75, 2-|3-(4-Fluoro-phenyl)-5-methyl-1H-pyrazol-4-yl|-thiazole-4-carboxylic acid (pyridin-2-ylmethyl)-amide] and `Cc1[nH]nc(-c2ccc(F)cc2)c1-c1nc(C(=O)NCc2ccc3c(c2)OCO3)cs1` [Example 74, 2-|3-(4-Fluoro-phenyl)-5-methyl-1H-pyrazol-4-yl|-thiazole-4-carboxylic acid (benzo|1,3|dioxol-5-yl methyl)-amide] cannot be ordered by IC50: ≤ 1 µM for the first, ≤ 1 µM for the second.

`CC(C)NC(=O)c1csc(-c2oc(CNC(=O)c3ccc(F)cc3F)nc2-c2ccc(F)cc2)n1` [Example 159] and `CC(C)NC(=O)c1csc(-c2oc(CNC(=O)c3cc(F)c(Cl)cc3F)nc2-c2ccc(F)cc2)n1` [Example 259] cannot be ordered by IC50: ≤ 1 µM for the first, > 1 µM for the second.

`CC(C)NC(=O)c1csc(-c2oc(CNC(=O)c3c(F)c(F)c(F)c(F)c3F)nc2-c2ccc(F)cc2)n1` [Example 282] and `Cc1nc(Br)sc1C(=O)NCc1nc(-c2ccc(F)cc2)c(-c2nc(C(=O)NC(C)C)cs2)o1` [Example 302] cannot be ordered by IC50: ≤ 1 µM for the first, ≤ 1 µM for the second.

`COc1cc(OC)cc(C(=O)N2CCN(Cc3nc(-c4ccc(F)cc4)c(-c4nc(C(=O)NC(C)C)cs4)o3)CC2)c1` [Example 464] and `COc1cc(OC)cc(C(=O)NCc2nc(-c3ccc(F)cc3)c(-c3nc(C(=O)NC(C)C)cs3)o2)c1` [Example 227] cannot be ordered by IC50: > 1 µM for the first, > 1 µM for the second.

`CC(C)NC(=O)c1csc(-c2oc(CNC(=O)OC(C)(C)C)nc2-c2ccc(F)cc2)n1` [Example 43, |4-(4-Fluoro-phenyl)-5-(4-isopropylcarbamoyl-thiazol-2-yl)-oxazol-2-ylmethyl|-carbamic acid tert-butyl ester] and `CC(C)NC(=O)c1csc(-c2oc(CNC(=O)C3CCCCN3C(=O)OC(C)(C)C)nc2-c2ccc(F)cc2)n1` (stereo not shown) [Example 311] cannot be ordered by IC50: > 1 µM for the first, > 1 µM for the second.

`Cc1nc(-c2ccc(F)cc2)c(-c2nc(C(N)=O)cs2)o1` [Example 39, 2-|4-(4-Fluoro-phenyl)-2-methyl-oxazol-5-yl|-thiazole-4-carboxylic acid amide] and `CC(C)NC(=O)c1csc(-c2oc(CN3CCN(C(=O)c4ncc[nH]4)CC3)nc2-c2ccc(F)cc2)n1` [Example 343] cannot be ordered by IC50: > 1 µM for the first, ≤ 1 µM for the second.

`CC(C)NC(=O)c1csc(-c2oc(CN3CCN(C(=O)c4cccnc4Cl)CC3)nc2-c2ccc(F)cc2)n1` [Example 390] and `Cc1ccc(SCC(=O)N2CCN(Cc3nc(-c4ccc(F)cc4)c(-c4nc(C(=O)NC(C)C)cs4)o3)CC2)cc1` [Example 466] cannot be ordered by IC50: > 1 µM for the first, > 1 µM for the second.

`COc1cc(/C=C/C(=O)N2CCN(Cc3nc(-c4ccc(F)cc4)c(-c4nc(C(=O)NC(C)C)cs4)o3)CC2)ccc1O` [Example 498] and `CC(C)NC(=O)c1csc(-c2c(-c3ccc(F)cc3)noc2CNC(=O)c2ccc(Cl)cc2O)n1` [Example 670] cannot be ordered by IC50: ≤ 1 µM for the first, > 1 µM for the second.

With `CC(C)NC(=O)c1csc(-c2c(-c3ccc(F)cc3)noc2CNC(=O)c2ccc(F)cc2)n1` [Example 601] the IC50 was > 1 µM.

Same assay, conditions: p38α kinase; Table 1 Biological Activity

`CCOc1ccc(OCC)c(NC(=O)c2csc(-c3sc(C)nc3-c3ccc(F)cc3)n2)c1` [Example 2016] and `Cc1ccc(C)c(NC(=O)c2csc(-c3sc(C)nc3-c3ccc(F)cc3)n2)c1` [Example 1965] cannot be ordered by IC50: > 1 µM for the first, > 1 µM for the second.

`CC(C)NC(=O)c1csc(-c2c(-c3ccc(F)cc3)noc2CNCC2(O)CCCCC2)n1` [Example 1488] and `CC(C)NC(=O)c1csc(-c2c(-c3ccc(F)cc3)noc2CNCCC#N)n1` [Example 1390] cannot be ordered by IC50: > 1 µM for the first, > 1 µM for the second.

`CC(C)NC(=O)c1csc(-c2c(-c3ccc(F)cc3)noc2CNc2ccc3c(c2)OCO3)n1` [Example 1662] and `COc1cccc(NCc2onc(-c3ccc(F)cc3)c2-c2nc(C(=O)NC(C)C)cs2)c1` [Example 1647] cannot be ordered by IC50: > 1 µM for the first, > 1 µM for the second.

`Cc1nc(-c2ccc(F)cc2)c(-c2nc(C(=O)NCCc3ccccc3Cl)cs2)s1` [Example 1802] and `Cc1nc(-c2ccc(F)cc2)c(-c2nc(C(=O)NCc3ccc(C(C)C)cc3)cs2)s1` [Example 1795] cannot be ordered by IC50: ≤ 1 µM for the first, > 1 µM for the second.

`O=C(NCc1ccc(F)c(Cl)c1)c1csc(-c2c(-c3ccc(F)cc3)n[nH]c2C2CCNCC2)n1` [Example 2131] and `COc1ccc(NC(=O)c2csc(-c3c(-c4ccc(F)cc4)n[nH]c3C3CCNCC3)n2)cc1OC` [Example 2125] cannot be ordered by IC50: > 1 µM for the first, > 1 µM for the second.

`CC(C)NC(=O)c1csc(-c2c(-c3ccc(F)cc3)noc2CN2CCC(N(C)C)C2)n1` (stereo not shown) [Example 1534] and `CC(C)NC(=O)c1csc(-c2c(-c3ccc(F)cc3)noc2CN2CCCC2CO)n1` (stereo not shown) [Example 1525] cannot be ordered by IC50: > 1 µM for the first, ≤ 1 µM for the second.

`CC(C)NC(=O)c1csc(-c2oc(CN3CCN(c4ccc(C#N)cn4)CC3)nc2-c2ccc(F)cc2)n1` [Example 1261] and `CC(C)NC(=O)c1csc(-c2oc(CN3CCN(c4ccccn4)CC3)nc2-c2ccc(F)cc2)n1` [Example 1242] cannot be ordered by IC50: > 1 µM for the first, > 1 µM for the second.

`O=C(NCCN1CCCC1)c1csc(-c2c(-c3ccc(F)cc3)n[nH]c2C2CCNCC2)n1` [Example 2070] and `O=C(NCCCN1CCCC1=O)c1csc(-c2c(-c3ccc(F)cc3)n[nH]c2C2CCNCC2)n1` [Example 2110] cannot be ordered by IC50: > 1 µM for the first, > 1 µM for the second.

`CC(=O)N[C@H]1CCN(Cc2nc(-c3ccc(F)cc3)c(-c3nc(C(=O)NC(C)C)cs3)o2)C1` [Example 1220] and `C#CCNCc1nc(-c2ccc(F)cc2)c(-c2nc(C(=O)NC(C)C)cs2)o1` [Example 1051] cannot be ordered by IC50: > 1 µM for the first, > 1 µM for the second.

`CC(C)NC(=O)c1csc(-c2oc(CNCc3ccc(N(C)C)cc3)nc2-c2ccc(F)cc2)n1` [Example 1172] and `CC(C)NC(=O)c1csc(-c2c(-c3ccc(F)cc3)noc2CNCc2ccc(C(C)(C)C)cc2)n1` [Example 1486] cannot be ordered by IC50: > 1 µM for the first, > 1 µM for the second.

`CC(C)NC(=O)c1csc(-c2c(-c3ccc(F)cc3)n[nH]c2C2CCN(C(=O)c3ccccc3O)CC2)n1` [Example 839] and `CC(C)NC(=O)c1csc(-c2c(-c3ccc(F)cc3)n[nH]c2C2CCN(C(=O)c3ccccc3[N+](=O)[O-])CC2)n1` [Example 898] cannot be ordered by IC50: > 1 µM for the first, > 1 µM for the second.

`CC(C)NC(=O)c1csc(-c2c(-c3ccc(F)cc3)noc2CNCCc2c[nH]c3ccccc23)n1` [Example 1485] and `CC(C)NC(=O)c1csc(-c2c(-c3ccc(F)cc3)noc2CNCCc2ccccc2Cl)n1` [Example 1478] cannot be ordered by IC50: > 1 µM for the first, > 1 µM for the second.

`O=C(NC1CCCCCC1)c1csc(-c2c(-c3ccc(F)cc3)n[nH]c2C2CCNCC2)n1` [Example 2068] and `CCOC(=O)N1CCC(NC(=O)c2csc(-c3c(-c4ccc(F)cc4)n[nH]c3C3CCNCC3)n2)CC1` [Example 2141] cannot be ordered by IC50: > 1 µM for the first, > 1 µM for the second.

`Cc1ccc(CCNCc2onc(-c3ccc(F)cc3)c2-c2nc(C(=O)NC(C)C)cs2)cc1` [Example 1444] and `COc1ccc(NCc2onc(-c3ccc(F)cc3)c2-c2nc(C(=O)NC(C)C)cs2)cc1` [Example 1648] cannot be ordered by IC50: > 1 µM for the first, > 1 µM for the second.

`CC(C)NC(=O)c1csc(-c2oc(CN(C)CC(O)c3ccc(O)cc3)nc2-c2ccc(F)cc2)n1` (stereo not shown) [Example 1246] and `CC(C)CCNCc1nc(-c2ccc(F)cc2)c(-c2nc(C(=O)NC(C)C)cs2)o1` [Example 1070] cannot be ordered by IC50: > 1 µM for the first, > 1 µM for the second.

`CC(C)NC(=O)c1csc(-c2c(-c3ccc(F)cc3)n[nH]c2C2CCN(C(=O)c3cc(F)cc(F)c3)CC2)n1` [Example 874] and `CC(C)NC(=O)c1csc(-c2c(-c3ccc(F)cc3)n[nH]c2C2CCN(C(=O)c3ccc(F)cc3)CC2)n1` [Example 840] cannot be ordered by IC50: > 1 µM for the first, > 1 µM for the second.

`COc1ccc(C(=O)N2CCC(c3[nH]nc(-c4ccc(F)cc4)c3-c3nc(C(=O)NC(C)C)cs3)CC2)c(OC)c1` [Example 939] and `CC(C)NC(=O)c1csc(-c2c(-c3ccc(F)cc3)n[nH]c2C2CCN(C(=O)c3ccc(C(C)C)cc3)CC2)n1` [Example 885] cannot be ordered by IC50: > 1 µM for the first, > 1 µM for the second.

`Cc1nc(-c2ccc(F)cc2)c(-c2nc(C(=O)N3Cc4ccccc4C3)cs2)s1` [Example 1866] and `Cc1nc(-c2ccc(F)cc2)c(-c2nc(C(=O)N3CCN(C)CC3)cs2)s1` [Example 1849] cannot be ordered by IC50: > 1 µM for the first, > 1 µM for the second.

`Cc1nc(-c2ccc(F)cc2)c(-c2nc(C(=O)N(CCO)[C@H](C)c3ccccc3)cs2)s1` [Example 1895] and `Cc1nc(-c2ccc(F)cc2)c(-c2nc(C(=O)Nc3ccc(N(C)C)cc3)cs2)s1` [Example 2009] cannot be ordered by IC50: > 1 µM for the first, ≤ 1 µM for the second.

`Cc1cccc(C(C)C)c1NCc1nc(-c2ccc(F)cc2)c(-c2nc(C(=O)NC(C)C)cs2)o1` [Example 1349] and `CC(C)NC(=O)c1csc(-c2oc(CNc3ccccc3C(=O)c3ccccc3)nc2-c2ccc(F)cc2)n1` [Example 1368] cannot be ordered by IC50: > 1 µM for the first, > 1 µM for the second.

`CC(C)NC(=O)c1csc(-c2c(-c3ccc(F)cc3)n[nH]c2C2CCN(C(=O)C3CC(O)CN3C(=O)OC(C)(C)C)CC2)n1` (stereo not shown) [Example 1031] and `Cc1ccccc1CC(=O)N1CCC(c2[nH]nc(-c3ccc(F)cc3)c2-c2nc(C(=O)NC(C)C)cs2)CC1` [Example 849] cannot be ordered by IC50: ≤ 1 µM for the first, > 1 µM for the second.
